Results as given in US12172983B2, “EGFR inhibitors” (Blueprint Medicines Corporation, priority 2019, dated 2024).
Like-named read-outs stand apart in the source and are kept apart here.

Key:
[1] = system: phosphorylation of EGFR (Tyr1068) in NCI-H1975 cell line that harbors the EGFR L858R T790M mutations; assay: NCI-H1975 pEGFR AlphaLISA assay; format: cell-based; details: 4-5 hours incubation, read-out: Ext pEGFR H1975
Method in brief: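 NCI-H1975 cells (EGFR L858R/T790M) seeded overnight, then treated with compound for 4-5 h at 37 °C/5% CO2. After lysis, p-EGFR (Tyr1068) quantified by AlphaLISA SureFire Ultra with acceptor then donor beads; IC50 fitted from percent inhibition versus log concentration.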

EGFR (L858R T790M C797S) = target: T1, EGFR (L858R T790M C797S) (Homo sapiens, UniProt P00533, C797S/L858R/T790M); assay: Biochemical EGFR inhibition assay (Caliper mobility shift), EGFR LRTMCS mutant; details: inhibitory activity against EGFR LRTMCS mutant; apparent IC50; read-out: Ext Enz LRTMCS
T1 construct: purchased SignalChem E10-122VG
Method in brief: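 Kinase reactions at 25 °C run to 10–20% peptide phosphorylation, stopped with 35 mM EDTA. Phosphorylated product and substrate separated electrophoretically by mobility shift. Apparent IC50 from percent activity versus log compound concentration.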

[2] = Homo sapiens, NCI-H1975, inhibition of phosphorylation of mutant EGFR in NCI-H1975 cells
[3] = inhibition of phosphorylation of mutant EGFR in NCI-H1975 cells

T1 sequence (P00533 25-1210 T790M/C797S/L858R): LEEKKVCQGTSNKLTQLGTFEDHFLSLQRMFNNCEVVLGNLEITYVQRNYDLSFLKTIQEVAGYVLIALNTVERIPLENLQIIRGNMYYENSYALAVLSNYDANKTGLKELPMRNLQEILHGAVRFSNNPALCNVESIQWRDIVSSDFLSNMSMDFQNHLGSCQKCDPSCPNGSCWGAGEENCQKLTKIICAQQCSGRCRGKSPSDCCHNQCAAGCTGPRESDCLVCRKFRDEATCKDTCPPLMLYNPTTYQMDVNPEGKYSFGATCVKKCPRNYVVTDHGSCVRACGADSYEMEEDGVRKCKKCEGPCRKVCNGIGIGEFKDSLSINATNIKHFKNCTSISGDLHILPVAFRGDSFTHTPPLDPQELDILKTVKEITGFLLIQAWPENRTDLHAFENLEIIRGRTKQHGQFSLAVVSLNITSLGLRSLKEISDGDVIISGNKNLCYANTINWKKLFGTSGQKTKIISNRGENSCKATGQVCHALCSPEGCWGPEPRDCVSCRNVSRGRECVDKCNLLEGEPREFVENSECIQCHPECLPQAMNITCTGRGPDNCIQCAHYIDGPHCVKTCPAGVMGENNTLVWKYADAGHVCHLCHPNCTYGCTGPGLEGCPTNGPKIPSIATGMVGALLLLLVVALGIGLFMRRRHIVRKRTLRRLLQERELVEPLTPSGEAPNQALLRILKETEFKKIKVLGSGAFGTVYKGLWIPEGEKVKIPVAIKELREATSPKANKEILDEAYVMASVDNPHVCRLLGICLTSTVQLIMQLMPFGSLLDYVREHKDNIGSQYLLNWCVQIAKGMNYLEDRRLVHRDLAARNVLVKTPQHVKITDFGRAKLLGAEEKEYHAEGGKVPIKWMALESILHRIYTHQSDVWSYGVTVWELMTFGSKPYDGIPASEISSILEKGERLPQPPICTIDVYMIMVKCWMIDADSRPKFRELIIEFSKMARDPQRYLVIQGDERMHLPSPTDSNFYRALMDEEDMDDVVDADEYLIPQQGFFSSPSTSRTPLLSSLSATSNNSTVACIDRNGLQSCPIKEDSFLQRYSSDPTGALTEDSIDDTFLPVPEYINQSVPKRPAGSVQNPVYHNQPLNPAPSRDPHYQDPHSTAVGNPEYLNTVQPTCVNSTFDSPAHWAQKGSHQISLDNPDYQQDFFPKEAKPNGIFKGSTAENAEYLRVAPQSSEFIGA

| IC50 [1, 2] [nM] | IC50 (EGFR (L858R T790M C797S)) [nM] | IC50 [1, 3] [nM] | SMILES |
| --- | --- | --- | --- |
| ≤ 10 | ≤ 15 | – | CO[C@H]1CCN(c2nccc(Nc3cc4c(C(C)C)cnc(N5C[C@H](CS(C)(=O)=O)[C@H]5C)c4cn3)n2)C[C@H]1F [Compound 131, N-{2-[(3R,4S)-3-fluoro-4-methoxypiperidin-1-yl]pyrimidin-4-yl}-8-[(2R,3S)-3-(methanesulfonylmethyl)-2-methylazetidin-1-yl]-5-(propan-2-yl)-2,7-naphthyridin-3-amine] |
| ≤ 10 | ≤ 15 | – | CCS(=O)(=O)C[C@H]1CN(c2cnc(C(C)C)c3cc(Nc4ccnc(N5CC[C@@](C)(O)C(F)(F)C5)n4)ncc23)[C@@H]1C (single isomer, unassigned) [Compound 231, (4R)-1-[4-({8-[(2R,3S)-3-[(ethanesulfonyl)methyl]-2-methylazetidin-1-yl]-5-(propan-2-yl)-2,6-naphthyridin-3-yl}amino)pyrimidin-2-yl]-3,3-difluoro-4-methylpiperidin-4-ol or (4S)-1-[4-({8-[(2R,3S)-3-[(ethanesulfonyl)methyl]-2-methylazetidin-1-yl]-5-(propan-2-yl)-2,6-naphthyridin-3-yl}amino)pyrimidin-2-yl]-3,3-difluoro-4-methylpiperidin-4-ol] |
| – | 15.1 to 20 | ≤ 10 | CO[C@@H]1[C@H](F)CN(c2nccc(Nc3cc4c(C(C)C)ccc(N5C[C@H](CS(C)(=O)=O)[C@H]5C)c4cn3)n2)C[C@@H]1O (single isomer, unassigned) [Compound 203, (3R,4R,5S)-5-fluoro-1-[4-({8-[(2R,3S)-3-(methanesulfonylmethyl)-2-methylazetidin-1-yl]-5-(propan-2-yl)isoquinolin-3-yl}amino)pyrimidin-2-yl]-4-methoxypiperidin-3-ol or (3S,4S,5R)-5-fluoro-1-[4-({8-[(2R,3S)-3-(methanesulfonylmethyl)-2-methylazetidin-1-yl]-5-(propan-2-yl)isoquinolin-3-yl}amino)pyrimidin-2-yl]-4-methoxypiperidin-3-ol] |
| ≤ 10 | ≤ 15 | – | CC(C)c1cnc(N2C[C@H](CS(C)(=O)=O)[C@H]2C)c2cnc(Nc3ccnc(N4CC[C@@](C)(O)C(F)(F)C4)n3)cc12 (single isomer, unassigned) [Compound 215, (4R)-3,3-difluoro-1-[4-({8-[(2R,3S)-3-(methanesulfonylmethyl)-2-methylazetidin-1-yl]-5-(propan-2-yl)-2,7-naphthyridin-3-yl}amino)pyrimidin-2-yl]-4-methylpiperidin-4-ol or (4S)-3,3-difluoro-1-[4-({8-[(2R,3S)-3-(methanesulfonylmethyl)-2-methylazetidin-1-yl]-5-(propan-2-yl)-2,7-naphthyridin-3-yl}amino)pyrimidin-2-yl]-4-methylpiperidin-4-ol] |
| 30.1 to 50 | 20.1 to 30 | – | COCCO[C@@H]1CCN(c2nccc(Nc3cc4c(C(C)C)ccc(N5CC(CS(C)(=O)=O)C5)c4cn3)n2)C[C@H]1O (racemic) [Compound 227, (3S,4S)-1-[4-[[5-isopropyl-8-[3-(methylsulfonylmethyl)azetidin-1-yl]-3-isoquinolyl]amino]pyrimidin-2-yl]-4-(2-methoxyethoxy)piperidin-3-ol or (3R,4R)-1-[4-[[5-isopropyl-8-[3-(methylsulfonylmethyl)azetidin-1-yl]-3-isoquinolyl]amino]pyrimidin-2-yl]-4-(2-methoxyethoxy)piperidin-3-ol] |
| ≤ 10 | ≤ 15 | – | CC(C)c1ccc(N2CC(CS(=O)(=O)C3CC3)C2)c2cnc(Nc3ccnc(N4CC[C@@H](O)[C@@](C)(F)C4)n3)cc12 [Compound 170, (3S,4R)-1-{4-[(8-{3-[(cyclopropanesulfonyl)methyl]azetidin-1-yl}-5-(propan-2-yl)isoquinolin-3-yl)amino]pyrimidin-2-yl}-3-fluoro-3-methylpiperidin-4-ol] |
| 20.1 to 30 | ≤ 15 | – | CO[C@@H]1CCN(c2nccc(Nc3cc4c(C(C)C)nnc(N5C[C@H](CS(C)(=O)=O)[C@H]5C)c4cn3)n2)C[C@@H]1F [Compound 150, N-(2-((3S,4R)-3-fluoro-4-methoxypiperidin-1-yl)pyrimidin-4-yl)-1-isopropyl-4-((2R,3S)-2-methyl-3-(methylsulfonylmethyl)azetidin-1-yl)pyrido[4,3-d]pyridazin-7-amine] |
| ≤ 10 | ≤ 15 | – | CCS(=O)(=O)C[C@H]1CN(c2cnc(C(C)C)c3cc(Nc4ccnc(N5CC[C@](C)(O)[C@H](F)C5)n4)ncc23)[C@@H]1C (single isomer, unassigned) [Compound 195] |

The next lines start with the compound.

| SMILES | IC50 [1, 2] [nM] | IC50 (EGFR (L858R T790M C797S)) [nM] | IC50 [1, 3] [nM] |
| --- | --- | --- | --- |
| C[C@@H]1[C@@H](CS(C)(=O)=O)CN1c1ccc(C2CC2)c2cc(Nc3ccnc(N4CC[C@@H](O)[C@@](C)(F)C4)n3)ncc12 (single isomer, unassigned) [Compound 90] | ≤ 10 | ≤ 15 | – |
| CC(C)c1ccc(N2CC(CS(C)(=O)=O)C2)c2cnc(Nc3ccnc(N4C[C@H]5COC[C@H]5C4)n3)cc12 [Compound 10, N-{2-[(3aR,6aS)-hexahydro-1H-furo[3,4-c]pyrrol-5-yl]pyrimidin-4-yl}-8-[3-(methanesulfonylmethyl)azetidin-1-yl]-5-(propan-2-yl)isoquinolin-3-amine] | 30.1 to 50 | ≤ 15 | – |
| C[C@@H]1[C@@H](CS(C)(=O)=O)CN1c1cccc2cc(Nc3ccnc(N4C[C@H](F)[C@H](O)C(C)(C)C4)n3)ncc12 (single isomer, unassigned) [Compound 30, (4S,5R)-5-fluoro-1-[4-({8-[(2R,3S)-3-(methanesulfonylmethyl)-2-methylazetidin-1-yl]isoquinolin-3-yl}amino)pyrimidin-2-yl]-3,3-dimethylpiperidin-4-ol or (4R,5S)-5-fluoro-1-[4-({8-[(2R,3S)-3-(methanesulfonylmethyl)-2-methylazetidin-1-yl]isoquinolin-3-yl}amino)pyrimidin-2-yl]-3,3-dimethylpiperidin-4-ol] | ≤ 10 | ≤ 15 | – |
| CO[C@H]1CCN(c2nccc(Nc3cc4c(C(C)C)ccc(N5CC(CS(C)(=O)=O)C5)c4cn3)n2)C[C@@H]1O (single isomer, unassigned) [Compound 53, (3S,4S)-1-[4-({8-[3-(methanesulfonylmethyl)azetidin-1-yl]-5-(propan-2-yl)isoquinolin-3-yl}amino)pyrimidin-2-yl]-4-methoxypiperidin-3-ol or (3R,4R)-1-[4-({8-[3-(methanesulfonylmethyl)azetidin-1-yl]-5-(propan-2-yl)isoquinolin-3-yl}amino)pyrimidin-2-yl]-4-methoxypiperidin-3-ol] | – | ≤ 15 | ≤ 10 |
| Cc1cc(C(C)C)c2cc(Nc3ccnc(N4CC[C@@H](O)[C@@](C)(F)C4)n3)ncc2c1N1CC(CS(C)(=O)=O)C1 (single isomer, unassigned) [Compound 116] | 10.1 to 20 | ≤ 15 | – |
| CC(C)c1ncc(N2C[C@H](CS(C)(=O)=O)[C@H]2C)c2cnc(Nc3ccnc(N4CC[C@@H](O)[C@@](C)(F)C4)n3)cc12 (single isomer, unassigned) [Compound 129] | ≤ 10 | ≤ 15 | – |
| CC(C)c1ccc(N2CC(CS(C)(=O)=O)C2)c2cnc(Nc3ccnc(N4CCC5(CCO5)CC4)n3)cc12 [Compound 38, 8-[3-(methanesulfonylmethyl)azetidin-1-yl]-N-(2-{1-oxa-7-azaspiro[3.5]nonan-7-yl}pyrimidin-4-yl)-5-(propan-2-yl)isoquinolin-3-amine] | ≤ 10 | ≤ 15 | – |
